Measurements taken from ChEMBL document CHEMBL1146408, “Makaluvamine N: a new pyrroloiminoquinone from Zyzzya fuliginosa” (1997).

Biological target: DNA topoisomerase 2-alpha (Homo sapiens) (UniProt P11388)
Assay: Inhibition of human topoisomerase 2alpha-mediated supercoiled pBR322 DNA relaxation at 5 ug/ml by agarose gel electrophoresis

Sequence of DNA topoisomerase 2-alpha (Homo sapiens) (P11388 whole entry): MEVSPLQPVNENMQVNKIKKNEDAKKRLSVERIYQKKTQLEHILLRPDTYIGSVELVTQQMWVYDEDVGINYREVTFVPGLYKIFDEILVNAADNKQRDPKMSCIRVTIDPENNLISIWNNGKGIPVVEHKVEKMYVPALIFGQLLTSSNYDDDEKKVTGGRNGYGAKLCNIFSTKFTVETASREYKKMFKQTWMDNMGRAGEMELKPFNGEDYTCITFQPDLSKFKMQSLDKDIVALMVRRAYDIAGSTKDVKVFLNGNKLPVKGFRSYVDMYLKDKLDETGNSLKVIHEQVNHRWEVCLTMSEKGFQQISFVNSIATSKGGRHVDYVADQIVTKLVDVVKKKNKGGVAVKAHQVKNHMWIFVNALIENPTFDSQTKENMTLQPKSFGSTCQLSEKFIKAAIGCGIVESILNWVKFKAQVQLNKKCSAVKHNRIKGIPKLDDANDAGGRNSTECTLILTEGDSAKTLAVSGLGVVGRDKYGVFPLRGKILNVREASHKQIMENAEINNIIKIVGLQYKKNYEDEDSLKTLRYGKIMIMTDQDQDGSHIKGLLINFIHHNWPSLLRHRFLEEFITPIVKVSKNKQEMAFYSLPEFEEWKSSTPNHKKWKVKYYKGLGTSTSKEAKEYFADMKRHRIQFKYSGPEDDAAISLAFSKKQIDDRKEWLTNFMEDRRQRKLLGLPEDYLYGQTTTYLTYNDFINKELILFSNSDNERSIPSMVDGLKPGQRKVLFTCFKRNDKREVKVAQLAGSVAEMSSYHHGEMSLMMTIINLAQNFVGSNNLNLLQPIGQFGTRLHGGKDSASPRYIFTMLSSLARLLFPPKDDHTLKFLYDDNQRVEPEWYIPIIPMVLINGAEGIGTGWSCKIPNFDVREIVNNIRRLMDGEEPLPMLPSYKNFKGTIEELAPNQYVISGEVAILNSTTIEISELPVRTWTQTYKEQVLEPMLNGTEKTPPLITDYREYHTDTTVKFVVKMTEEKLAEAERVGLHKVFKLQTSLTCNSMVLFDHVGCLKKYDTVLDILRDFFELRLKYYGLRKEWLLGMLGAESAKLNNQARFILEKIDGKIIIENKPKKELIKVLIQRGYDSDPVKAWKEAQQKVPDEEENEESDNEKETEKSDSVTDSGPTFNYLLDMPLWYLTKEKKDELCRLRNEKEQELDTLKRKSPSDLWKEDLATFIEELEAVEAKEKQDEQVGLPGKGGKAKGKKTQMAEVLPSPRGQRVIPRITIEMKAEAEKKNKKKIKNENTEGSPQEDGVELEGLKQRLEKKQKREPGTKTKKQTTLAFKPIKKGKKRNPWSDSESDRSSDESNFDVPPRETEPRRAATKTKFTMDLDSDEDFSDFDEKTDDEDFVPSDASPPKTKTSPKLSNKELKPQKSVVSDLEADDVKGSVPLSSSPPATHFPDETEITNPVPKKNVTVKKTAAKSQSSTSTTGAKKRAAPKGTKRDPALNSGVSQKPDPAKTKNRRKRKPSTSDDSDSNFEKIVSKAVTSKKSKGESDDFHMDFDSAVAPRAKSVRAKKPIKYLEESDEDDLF

- inhibition: 90%
Structure (SMILES): NC1=C(Br)C2=NCCc3c[nH]c(c32)C1=O
